The text below walks through data of ChEMBL document CHEMBL1201862, “PubChem BioAssay data set” (2004).

Test systems include UO-31; TK-10; SN12C; SK-MEL-28; SK-OV-3; A549; NCI-H226; HCT-15; HOP-62; CAKI-1; KM12; SF-295; Malme-3M; SK-MEL-5; EKVX; HCC 2998; SNB-19; MDA-MB-435; MDA-N.
Holding throughout (experiment): NCI anticancer screen, dose series, 48 h

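Growth conditions: 96-well plates. Treatment: test compound, 48 hours, 5 concentrations. Analysis: linear interpolation between bracketing concentrations; unreached endpoints set to highest concentration. GI50 is the concentration that inhibits growth by half.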 Calls of active or inactive are those of the source. Cut-off read from the data, not from the text of the source: active = GI50 up to about 1.1 µM and inactive = higher. A value given as a limit tells only on which side of the number the result lay.

With `C=C(Br)C(C)(Br)CCC(Br)C(C)(C)Br` (configuration not stated), the GI50 with UO-31 was 60.7 µM (inactive); in the assay on TK-10, 46.3 µM (inactive); in the assay with SN12C, 21.6 µM (inactive); in the assay with SK-MEL-28, 19.1 µM (inactive); in the assay with SK-OV-3, 40.7 µM (inactive); in the assay with A549, 80.2 µM (inactive). Besides, the GI50 in the assay with NCI-H226 is 35.3 µM (inactive); with HCT-15, 34.8 µM; in the assay on HOP-62, 14.7 µM (inactive); in the assay with CAKI-1 it was > 100 µM (inactive); in the assay on KM12, 40.1 µM (inactive); in the assay with SF-295 it was 26.5 µM (inactive). The figures for the GI50 in the assay on Malme-3M and in the assay on SK-MEL-5 were 28.1 µM (inactive) and 33.5 µM (inactive), respectively.

In the case of `O=c1[nH]nc(-c2ccccc2)c(-c2ccccc2)c1-n1nc(-c2ccccc2)c2ccccc2c1=O`, the GI50 in the assay on UO-31 was 71.8 µM (inactive); in the assay on TK-10, > 100 µM (inactive); in the assay with SN12C it was > 100 µM (inactive); in the assay with EKVX, > 100 µM (inactive); in the assay on SK-MEL-28, > 100 µM (inactive); with SK-OV-3, > 100 µM (inactive). In addition, the GI50 in the assay with A549 was 83.4 µM (inactive); in the assay on NCI-H226, > 100 µM (inactive); in the assay with HCT-15 it was 78 µM; with HOP-62, > 100 µM (inactive); in the assay on CAKI-1 it was > 100 µM (inactive); in the assay on KM12 it was 65.8 µM (inactive). The GI50 in the assay on SF-295 was 43.2 µM (inactive); in the assay on HCC 2998, > 100 µM (inactive); with Malme-3M, > 100 µM (inactive); with SK-MEL-5, > 100 µM (inactive).

As to `C=CCN(C(=O)CNC(=O)C(F)(F)F)c1cc(OCc2ccccc2)c2c(c1)c(C)cn2S(=O)(=O)c1ccccc1`, the GI50 in the assay on UO-31 was 2.9 µM (inactive); in the assay on TK-10 it was > 100 µM (inactive); with SN12C it was > 100 µM (inactive); in the assay with EKVX, 7.71 µM (inactive); in the assay on SK-MEL-28, > 100 µM (inactive); in the assay with SK-OV-3 it was > 100 µM (inactive). In addition, the GI50 in the assay on A549 was 7.5 µM (inactive); in the assay on NCI-H226 it was > 34.8 µM (inactive); with HCT-15, more than 100 µM; with HOP-62 it was > 100 µM (inactive); in the assay with CAKI-1, > 31 µM (inactive); with SNB-19, > 100 µM (inactive). Also, the GI50 in the assay on KM12 was 17.6 µM (inactive); in the assay with SF-295, 23 µM (inactive); in the assay with MDA-MB-435, 40.6 µM (inactive); with HCC 2998 it was > 100 µM (inactive); in the assay with Malme-3M, > 100 µM (inactive); in the assay on SK-MEL-5, 24 µM (inactive).

For `COc1nc(C#CCCCC#N)nc(OC)n1`, the GI50 in the assay with MDA-N was 15.7 µM (inactive); in the assay on UO-31 it was 11.1 µM (inactive); with TK-10 it was 21.6 µM (inactive); in the assay with SN12C it was 16.4 µM (inactive); in the assay with EKVX, 19.8 µM (inactive); in the assay on SK-MEL-28, 15.5 µM (inactive). Also, the GI50 is 90.6 µM (inactive) in the assay on SK-OV-3; 15.8 µM (inactive) in the assay on A549; 3.29 µM in the assay on HCT-15; 24.2 µM (inactive) in the assay on HOP-62; 12.8 µM (inactive) with CAKI-1; 77.3 µM (inactive) in the assay on SNB-19. For the same molecule, the GI50 with KM12 was 16.9 µM (inactive); in the assay on SF-295, 28.2 µM (inactive); in the assay on MDA-MB-435 it was 10.4 µM (inactive); with Malme-3M it was 13.4 µM (inactive); in the assay with SK-MEL-5, 13.3 µM (inactive).

Consider `CN(C)C(=O)C(F)(F)C(c1ccccc1)C1C(=O)N(C)C(=O)N(C)C1=O` (configuration not stated), for which the GI50 with UO-31, in the assay with TK-10, with EKVX, with SK-MEL-28, in the assay on SK-OV-3 and with A549 was > 100 µM (inactive) throughout. Besides, the GI50 with NCI-H226 was > 100 µM (inactive); in the assay with HCT-15, more than 100 µM; in the assay with HOP-62 it was > 100 µM (inactive); in the assay with CAKI-1, > 100 µM (inactive); in the assay with SNB-19, > 100 µM (inactive); with KM12 it was > 100 µM (inactive). In addition, the GI50 with SF-295, in the assay on MDA-MB-435, in the assay with HCC 2998 and with SK-MEL-5 was > 100 µM (inactive) each time.

As for `Cc1ccc(C(=N)c2ccccc2Cc2cccc3ccccc23)c2ccccc12`, the GI50 in the assay with UO-31 is 44.8 µM (inactive); with TK-10, > 100 µM (inactive); in the assay with SN12C, > 100 µM (inactive); in the assay with EKVX, 60.1 µM (inactive); with SK-MEL-28, > 100 µM (inactive); with SK-OV-3, > 100 µM (inactive). Moreover, the GI50 in the assay on A549 was 54.3 µM (inactive); in the assay with NCI-H226 it was > 100 µM (inactive); with HCT-15, 40.6 µM; with HOP-62, > 100 µM (inactive); in the assay with CAKI-1, > 100 µM (inactive); in the assay on SNB-19 it was > 100 µM (inactive). Also, the GI50 in the assay with KM12 is > 100 µM (inactive); in the assay on SF-295, 71.4 µM (inactive); with MDA-MB-435, > 100 µM (inactive); with Malme-3M, > 100 µM (inactive); in the assay on SK-MEL-5 it was 31.9 µM (inactive).

Take `Cc1cc2c(cc1Cl)SC(NNC(=O)c1ccccc1)=NS2(=O)=O`: the GI50 with TK-10, in the assay on SN12C, in the assay with EKVX, in the assay with SK-MEL-28, with SK-OV-3 and with A549 was > 10 µM (inactive) throughout. Moreover, the GI50 with NCI-H226 was > 10 µM (inactive); in the assay on HCT-15, more than 10 µM; with HOP-62, > 10 µM (inactive); in the assay on CAKI-1, > 10 µM (inactive); with SNB-19 it was > 10 µM (inactive); in the assay with KM12 it was > 10 µM (inactive). Besides, the GI50 with SF-295, in the assay with MDA-MB-435, with HCC 2998, in the assay on Malme-3M and in the assay on SK-MEL-5 was > 10 µM (inactive) each time.

Consider `Oc1ccc(C(O)(c2ccccc2)c2ccccc2)c2ccccc12`, for which the GI50 with UO-31 was 2.97 µM (inactive); with TK-10, 2.59 µM (inactive); in the assay on SN12C it was 2.22 µM (inactive); in the assay with EKVX, 10.4 µM (inactive); with SK-MEL-28 it was 15 µM (inactive); in the assay with SK-OV-3, 3.25 µM (inactive). Also, the GI50 in the assay on A549 was 3.27 µM (inactive); in the assay on NCI-H226 it was 2.52 µM (inactive); with HCT-15 it was 1.22 µM; with HOP-62 it was 2.3 µM (inactive); in the assay with CAKI-1, 1.82 µM (inactive); in the assay with SNB-19 it was 5.15 µM (inactive). Besides, the GI50 in the assay with KM12 was 2.07 µM (inactive); in the assay on SF-295, 2.9 µM (inactive); with MDA-MB-435 it was 1.07 µM (active); in the assay on Malme-3M it was 10.2 µM (inactive); with SK-MEL-5 it was 2.67 µM (inactive).

For `CCC(=O)C1(c2ccccc2)CCN(C)CC1`, the GI50 in the assay on MDA-N, in the assay on UO-31, in the assay with TK-10, in the assay on EKVX, in the assay with SK-MEL-28 and in the assay on SK-OV-3 was > 100 µM (inactive) in each case. The GI50 is > 100 µM (inactive) in the assay on A549; more than 100 µM with HCT-15; > 100 µM (inactive) with HOP-62; > 100 µM (inactive) in the assay on CAKI-1; > 100 µM (inactive) with SNB-19; > 100 µM (inactive) in the assay with KM12. For the same molecule, the GI50 in the assay on SF-295, with HCC 2998, with Malme-3M and with SK-MEL-5 was > 100 µM (inactive) each time.

As for `CC12CP(=O)(O)CC1C2(Cl)Cl` (configuration not stated), the GI50 with UO-31 was 50.6 µM (inactive); with TK-10 it was > 100 µM (inactive); in the assay on SN12C it was > 100 µM (inactive); in the assay on EKVX, > 100 µM (inactive); in the assay with SK-MEL-28 it was > 100 µM (inactive); in the assay with SK-OV-3, > 100 µM (inactive). The GI50 is > 100 µM (inactive) with A549; > 100 µM (inactive) in the assay on NCI-H226; more than 100 µM with HCT-15; > 100 µM (inactive) with HOP-62; > 100 µM (inactive) in the assay on CAKI-1; > 100 µM (inactive) with SNB-19. The GI50 in the assay with KM12, in the assay on SF-295, in the assay on MDA-MB-435, in the assay on HCC 2998, in the assay with Malme-3M and in the assay with SK-MEL-5 was > 100 µM (inactive) each time.

For the molecule `SC1=NNC2(C(S)=N1)c1ccccc1-c1ccccc12`, the GI50 with UO-31 is 4.51 µM (inactive); with TK-10 it was > 10 µM (inactive); with SN12C, > 10 µM (inactive); in the assay on EKVX it was > 10 µM (inactive); in the assay on SK-OV-3, > 10 µM (inactive); in the assay on A549, > 10 µM (inactive). Also, the GI50 with NCI-H226 is 8.81 µM (inactive); in the assay with HCT-15, more than 10 µM; in the assay with HOP-62, > 10 µM (inactive); with CAKI-1, > 10 µM (inactive); with KM12, > 10 µM (inactive); in the assay on HCC 2998, > 10 µM (inactive). The GI50 in the assay on Malme-3M and with SK-MEL-5 was > 10 µM (inactive) in each case.

`O=C1C(Cl)=C(Cl)C(=O)C(CCNc2nccs2)=C1Cl`: the GI50 with UO-31 was 21.2 µM (inactive); in the assay with TK-10, 29.2 µM (inactive); with SN12C it was 29.3 µM (inactive); with EKVX, 24.5 µM (inactive); in the assay on SK-MEL-28 it was 39 µM (inactive); in the assay with SK-OV-3 it was > 100 µM (inactive). The GI50 with A549 was > 100 µM (inactive); with HCT-15, 20.4 µM; in the assay on HOP-62, > 100 µM (inactive); in the assay with CAKI-1, 19.3 µM (inactive); with SNB-19, > 100 µM (inactive); in the assay on KM12, 32.7 µM (inactive). Besides, the GI50 with SF-295 is > 100 µM (inactive); in the assay on MDA-MB-435, 21.4 µM (inactive); in the assay on HCC 2998 it was > 100 µM (inactive); in the assay with Malme-3M, 20.4 µM (inactive); in the assay with SK-MEL-5, 19.5 µM (inactive).
